Series [1] concerns the target 72 kDa type IV collagenase (Homo sapiens, UniProt P08253). Kind of series: Inhibition of MMP2 (unknown origin) by FRET method.
Series [2] has as its target Matrix metalloproteinase-14 (Homo sapiens, UniProt P50281). Kind of series: Inhibition of MMP14 (unknown origin) by FRET method.
Series [3] addresses T1, A disintegrin and metalloproteinase with thrombospondin motifs 4 (Homo sapiens, UniProt O75173).
T1 sequence (O75173 whole entry): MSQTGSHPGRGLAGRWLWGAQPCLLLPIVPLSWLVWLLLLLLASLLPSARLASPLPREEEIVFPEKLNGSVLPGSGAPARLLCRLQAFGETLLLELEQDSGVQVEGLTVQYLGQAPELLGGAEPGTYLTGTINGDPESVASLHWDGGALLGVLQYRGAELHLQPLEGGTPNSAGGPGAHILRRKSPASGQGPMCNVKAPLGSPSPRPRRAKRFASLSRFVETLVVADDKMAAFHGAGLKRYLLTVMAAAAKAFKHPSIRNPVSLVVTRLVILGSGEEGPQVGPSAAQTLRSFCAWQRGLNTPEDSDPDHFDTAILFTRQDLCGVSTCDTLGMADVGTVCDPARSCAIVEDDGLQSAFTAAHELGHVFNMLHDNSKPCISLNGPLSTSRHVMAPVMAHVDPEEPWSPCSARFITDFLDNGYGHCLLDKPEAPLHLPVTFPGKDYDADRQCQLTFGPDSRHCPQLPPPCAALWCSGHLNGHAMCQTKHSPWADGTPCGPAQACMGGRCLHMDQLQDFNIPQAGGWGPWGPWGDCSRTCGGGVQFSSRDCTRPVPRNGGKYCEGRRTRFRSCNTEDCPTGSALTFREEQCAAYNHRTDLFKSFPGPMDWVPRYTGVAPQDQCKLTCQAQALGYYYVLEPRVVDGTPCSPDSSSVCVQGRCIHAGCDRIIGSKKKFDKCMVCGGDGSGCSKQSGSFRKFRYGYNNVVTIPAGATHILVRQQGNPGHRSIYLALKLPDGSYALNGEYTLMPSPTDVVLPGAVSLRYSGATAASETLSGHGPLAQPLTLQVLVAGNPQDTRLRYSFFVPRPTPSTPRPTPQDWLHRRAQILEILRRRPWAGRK
Nature of the series: Inhibition of ADAMTS-4 (unknown origin) by FRET method.

Series [4] can be described thus: Intrinsic clearance in […]. The series is classed as ADME.
Series [5] deals with T2, A disintegrin and metalloproteinase with thrombospondin motifs 5 (Bos taurus) (UniProt Q9TT92).
T2 sequence (whole entry): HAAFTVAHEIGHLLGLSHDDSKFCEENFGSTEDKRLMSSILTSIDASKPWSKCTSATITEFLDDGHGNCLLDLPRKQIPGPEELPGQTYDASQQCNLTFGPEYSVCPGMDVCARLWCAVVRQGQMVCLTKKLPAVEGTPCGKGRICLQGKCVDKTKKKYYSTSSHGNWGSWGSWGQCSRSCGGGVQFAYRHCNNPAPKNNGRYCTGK
Kind of series: Ex vivo inhibition of ADAMTS-5-mediated aggrecan degradation in IL-1-stimulated bovine cartilage explant at 30 uM.

The nature of series [6]: Apparent permeability from apical to basolateral side of MDCK cells by transwell assay. The series is classed as ADME, cell-based, Canis lupus familiaris. The conditions noted are these: dog.
The target in series [7] is T3, A disintegrin and metalloproteinase with thrombospondin motifs 5 (Homo sapiens, UniProt Q9UNA0).
T3 sequence (Q9UNA0 whole entry): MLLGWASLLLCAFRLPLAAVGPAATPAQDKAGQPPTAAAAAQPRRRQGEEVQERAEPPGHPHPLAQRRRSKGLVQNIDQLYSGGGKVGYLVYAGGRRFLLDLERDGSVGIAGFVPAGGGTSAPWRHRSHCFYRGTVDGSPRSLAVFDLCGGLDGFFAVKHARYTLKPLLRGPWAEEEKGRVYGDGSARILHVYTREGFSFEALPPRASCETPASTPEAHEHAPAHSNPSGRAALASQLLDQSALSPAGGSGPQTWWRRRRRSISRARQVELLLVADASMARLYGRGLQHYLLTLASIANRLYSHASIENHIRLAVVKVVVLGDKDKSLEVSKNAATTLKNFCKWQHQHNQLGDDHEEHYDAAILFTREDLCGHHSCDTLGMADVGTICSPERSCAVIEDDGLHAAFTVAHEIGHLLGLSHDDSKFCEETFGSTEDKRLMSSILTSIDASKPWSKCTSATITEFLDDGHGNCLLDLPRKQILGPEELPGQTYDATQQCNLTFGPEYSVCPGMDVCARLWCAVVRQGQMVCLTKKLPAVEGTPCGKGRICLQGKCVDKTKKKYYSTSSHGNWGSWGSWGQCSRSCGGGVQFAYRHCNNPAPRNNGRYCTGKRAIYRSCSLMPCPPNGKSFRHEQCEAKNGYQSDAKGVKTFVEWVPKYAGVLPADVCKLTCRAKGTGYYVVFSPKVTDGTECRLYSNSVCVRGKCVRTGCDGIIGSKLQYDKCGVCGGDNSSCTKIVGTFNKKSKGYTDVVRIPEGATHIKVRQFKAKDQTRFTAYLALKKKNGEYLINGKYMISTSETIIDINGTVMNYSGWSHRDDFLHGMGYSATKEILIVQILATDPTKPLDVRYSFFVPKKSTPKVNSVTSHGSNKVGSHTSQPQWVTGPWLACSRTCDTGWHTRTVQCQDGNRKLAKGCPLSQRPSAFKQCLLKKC
Kind of series: Inhibition of human His-tagged ADAMTS-5 using QF-peptide as substrate by FRET method.

The target of series [8] is Stromelysin-1 (Homo sapiens, UniProt P08254). Kind of series: Inhibition of MMP3 (unknown origin) by FRET method.
Stromelysin-1, sequence (P08254 whole entry): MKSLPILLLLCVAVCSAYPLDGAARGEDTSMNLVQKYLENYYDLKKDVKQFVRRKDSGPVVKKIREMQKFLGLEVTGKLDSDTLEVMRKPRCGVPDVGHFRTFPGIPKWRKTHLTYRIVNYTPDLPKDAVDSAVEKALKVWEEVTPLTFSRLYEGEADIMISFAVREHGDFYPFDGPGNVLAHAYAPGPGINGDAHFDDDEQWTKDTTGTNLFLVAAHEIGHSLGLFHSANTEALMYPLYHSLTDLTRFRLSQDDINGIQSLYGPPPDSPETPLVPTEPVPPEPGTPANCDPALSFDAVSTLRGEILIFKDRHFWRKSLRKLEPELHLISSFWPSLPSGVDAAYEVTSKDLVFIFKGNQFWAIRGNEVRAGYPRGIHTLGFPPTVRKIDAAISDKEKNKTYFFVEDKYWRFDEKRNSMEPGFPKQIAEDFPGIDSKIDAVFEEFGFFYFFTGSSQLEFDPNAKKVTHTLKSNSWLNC

72 kDa type IV collagenase, sequence (P08253 whole entry): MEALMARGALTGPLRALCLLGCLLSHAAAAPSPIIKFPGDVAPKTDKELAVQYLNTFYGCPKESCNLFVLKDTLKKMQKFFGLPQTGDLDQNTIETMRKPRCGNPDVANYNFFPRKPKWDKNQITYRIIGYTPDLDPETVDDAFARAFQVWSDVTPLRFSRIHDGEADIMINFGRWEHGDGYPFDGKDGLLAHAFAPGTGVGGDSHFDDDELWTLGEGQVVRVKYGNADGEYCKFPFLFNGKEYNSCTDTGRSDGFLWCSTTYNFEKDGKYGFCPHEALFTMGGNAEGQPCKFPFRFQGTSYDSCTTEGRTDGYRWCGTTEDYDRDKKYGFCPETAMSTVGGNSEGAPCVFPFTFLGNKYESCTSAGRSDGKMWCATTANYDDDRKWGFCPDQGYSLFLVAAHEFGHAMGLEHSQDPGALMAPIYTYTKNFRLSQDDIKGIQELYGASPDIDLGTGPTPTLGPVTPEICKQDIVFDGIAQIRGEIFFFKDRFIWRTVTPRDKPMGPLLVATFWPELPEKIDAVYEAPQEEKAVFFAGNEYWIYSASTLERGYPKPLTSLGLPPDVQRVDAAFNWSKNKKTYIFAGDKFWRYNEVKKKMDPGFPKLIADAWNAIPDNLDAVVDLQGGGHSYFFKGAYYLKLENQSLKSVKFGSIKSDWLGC

In the case of `O=C(O)CCc1sc(/C=C2\NC(=O)CS2)nc1-c1ccccn1`, the IC50 in series [1] was more than 30 µM; in series [2] it was 24 µM; in series [3] it was 23 µM; in series [7], 0.23 µM; in series [8] it was more than 30 µM. In addition, the intrinsic clearance (CLint scaled) in series [4] was determined as 2.7 mL/min/kg. Further, in series [5], the inhibition came to 66%. Besides, the Papp A→B in series [6] was determined as 5.55 ×10⁻⁶ cm/s.

A word on the IC50: it is the concentration at which inhibition is half-maximal. The low end stands for inhibition by little substance, the high end for a need for much substance. The term CLint scaled denotes the rate of metabolic loss divided by the concentration. Usually inhibition stands for the drop in the measured response relative to a control, in per cent. The term Papp A→B denotes the apparent permeability from the apical to the basolateral side of a cell layer.

The record behind these values is ChEMBL document CHEMBL2346648, “A series of thiazole derivatives bearing thiazolidin-4-one as non-competitive ADAMTS-5 (aggrecanase-2) inhibitors” (Bioorg Med Chem Lett, 2013).
